Patent US12220398B2, “Tumor therapeutic agent” (Eisai R&D Management Co., Ltd., priority 2015, dated 2025)

Assays:
Assay type in all cases: in vivo
[1] = system: human osteosarcoma cell line (143B); experiment: Tumor growth inhibitory activity against human osteosarcoma cell line (143B) subcutaneous transplantation models; settings: 143B s.c. xenograft in NOD SCID mice, lenvatinib mesylate 3 mg/kg p.o. Day 1-7, ifosfamide 250 mg/kg i.p. Day 1, etoposide 8 mg/kg i.p. Day 2-4, control group 785.4
Experimental: Using 6 NOD SCID mice (NOD.CB17-Prkdc^scid/J, female mice, Charles River Laboratories Japan, Inc.) in each group, antitumor effects were evaluated when lenvatinib alone, a combination of two agents, i.e., ifosfamide and etoposide, or a combination of three agents, i.e., lenvatinib, ifosfamide, and etoposide, was administered. Cells of osteosarcoma cell line 143B (ATCC CRL-8303) derived from human were suspended at a concentration of 1×10^7 cells/mL, and 0.1 mL of the suspension was subcutaneously transplanted to the right flank of each mouse.
The longest diameter and short axis of the tumor were measured with an electronic digital caliper (Digimatic (tread mark) Caliper, Mitutoyo Corporation) 9 days after transplantation. The mice were divided into groups so that the average value of the tumor volume of each group was almost equal (Day 1). The tumor volume was calculated according to the following equation: Tumor volume=longest diameter(mm)×short axis(mm)×short axis(mm)/2
Lenvatinib mesylate was dissolved in purified water to a concentration of 0.3 mg/mL. Ifosfamide (Sigma Aldrich) was dissolved in a physiological saline solution to a concentration of 25 mg/mL. […]
(§1) The tumor volume of each mouse was measured 8 days (Day 8) after the start of administration.

[2] = system: human osteosarcoma cell line (G-292 clone A141B1); experiment: Tumor growth inhibitory activity against human osteosarcoma cell line (G-292 clone A141B1) subcutaneous transplantation models; settings: G-292 clone A141B1 s.c. xenograft in NOD SCID mice, lenvatinib mesylate 3 mg/kg p.o. Day 1-7, ifosfamide 250 mg/kg i.p. Day 1, etoposide 8 mg/kg i.p. Day 2-4, control group 362.5
Experimental: Using 6 NOD SCID mice (NOD.CB17-Prkdc^scid/J, female mice, Charles River Laboratories Japan, Inc.) in each group, antitumor effects were evaluated when lenvatinib alone, a combination of two agents, i.e., ifosfamide and etoposide, or a combination of three agents, i.e., lenvatinib, ifosfamide, and etoposide, was administered. Cells of osteosarcoma cell line G-292 clone A141B1 (JCRB Cell Bank, IFO50107) derived from human were suspended at a concentration of 1×10^8 cells/mL, and 0.1 mL of the suspension was subcutaneously transplanted to the right flank of each mouse.
The longest diameter and short axis of the tumor were measured with an electronic digital caliper (Digimatic (tread mark) Caliper, Mitutoyo Corporation) 29 days after transplantation. The mice were divided into groups so that the average value of the tumor volume of each group was almost equal (Day 1). The tumor volume was calculated according to the following equation: Tumor volume=longest diameter(mm)×short axis(mm)×short axis(mm)/2
Lenvatinib mesylate was dissolved in purified water to a concentration of 0.3 mg/mL. lfosfamide (Sigma Aldrich) was dissolved in a physiological saline solution to a concentration of 25 mg/mL. […]
as §1

[3] = system: human osteosarcoma cell line (HOS); experiment: Tumor growth inhibitory activity against human osteosarcoma cell line (HOS) subcutaneous transplantation models; settings: HOS s.c. xenograft in NOD SCID mice, lenvatinib mesylate 3 mg/kg p.o. Day 1-7, ifosfamide 250 mg/kg i.p. Day 1, etoposide 8 mg/kg i.p. Day 2-4, control group 468.6
Experimental: Tumor growth inhibitory activity of the combined use of lenvatinib, ifosfamide, and etoposide against human osteosarcoma cell line (HOS) subcutaneous transplantation models
Using 6 NOD SOD mice (NOD.CB17-Prkdc^scid/J, female mice, Charles River Laboratories Japan, Inc.) in each group, antitumor effects were evaluated when lenvatinib alone, a combination of two agents, i.e., ifosfamide and etoposide, or a combination of three agents, i.e., lenvatinib, ifosfamide, and etoposide, was administered. Cells of osteosarcoma cell line HOS (Human Science Research Resources Bank, IFO50106) derived from human were suspended at a concentration of 1×10^8 cells/mL, and 0.1 mL of the suspension was subcutaneously transplanted to the right of each mouse.
The longest diameter and short axis of the tumor were measured with an electronic digital caliper (Digimatic (tread mark) Caliper, Mitutoyo Corporation) 18 days after transplantation. The mice were divided into groups so that the average value of the tumor volume of each group was almost equal (Day 1). The tumor volume was calculated according to the following equation: Tumor volume=longest diameter(mm)×short axis(mm)×short axis(mm)/2
Lenvatinib mesylate was dissolved in purified water to a concentration of 0.3 mg/mL. […]
as §1

## COc1cc2nccc(Oc3ccc(NC(=O)NC4CC4)c(Cl)c3)c2cc1C(N)=O [Lenvatinib, 4-(3-chloro-4-(cyclopropylaminocarbonyl)aminophenoxy)-7-methoxy-6-quinolinecarboxamide]
[1]
  Average tumor volume (Day 8): 438.6 mm^3
[2]
  Average tumor volume (Day 8): 267.9 mm^3
[3]
  Average tumor volume (Day 8): 352.2 mm^3
